This is an account of results in PubChem BioAssay (NCI).

“And” between values parts separate entries of the source, which are not always exact repeats. Identical values can stand only once.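 Assay format: 96-well plates, 48-hour exposure. GI50: concentration for 50% inhibition of growth. TGI: total growth inhibition.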

Common to all, as to test: NCI tumour cell line growth inhibition, 48 h
Assay [1] concerns ACHN renal.
For assay [2], the system named is HOP-92 NSCLC.
In assay [3] the test system is IGROV1 ovarian.
Assay [4] has as its system LOX IMVI melanoma.
For assay [5], the system named is NCI-H226 lung.
Assay [6] deals with OVCAR-4 ovarian.
Assay [7] has as its system SN12C renal.
The test system of assay [8] is T-47D breast.
Assay [9] has as its system U251 CNS.
Assay [10] has as its system UO-31 renal.

As for `COc1cc(NS(=O)(=O)c2ccc(-c3cnc(C4CC4)o3)cc2)ccc1F`, the GI50 in assay [1] is 594 nM; in assay [2], 579 nM; in assay [3], 439 nM; in [4], 534 nM; in assay [5], 1240 nM; in [6] it was 2050 nM. Moreover, the GI50 is 546 nM in assay [7], 436 nM in [8], 572 nM in assay [9] and 581 nM in assay [10]. Further, the TGI was 46000 nM in [1]; 13100 nM in [2]; 24600 nM in assay [3]; 17900 nM in [4]; 22100 nM in [5]; 36200 nM in assay [6]. Besides, the TGI in assay [7] came to 18100 nM; in [8] it was 38900 nM; in assay [9] it was 18100 nM; in [10] it was 24100 nM.
For `COc1ccccc1Cn1cc2c(c1-c1ccccc1)CCc1cnoc1-2`, the GI50 in [1] is 5270 nM; in assay [2], 1360 nM; in assay [3], 3600 nM; in assay [4], 3040 nM; in [5] it was 8520 nM; in [6], 8560 nM. For the same compound, the GI50 in assay [7] was 6610 nM; in assay [8] it was 4490 nM; in assay [9] it was 4060 nM; in [10] it was 3460 nM. The TGI in assay [1] was over 100000 nM; in assay [2], 9420 nM; in [3], over 100000 nM; in assay [4], over 100000 nM; in [5], over 100000 nM; in assay [6] it was over 100000 nM. The TGI in [7] is over 100000 nM; in assay [8], over 100000 nM; in assay [9], over 100000 nM; in assay [10] it was 78600 nM.
With `COc1cc2c3c(n(C)c(=O)c2cc1OC)-c1cc2c(cc1/C3=C\CNCCCN)OCO2`, the GI50 in [1] is 271 nM; in assay [2], 174 nM; in assay [3], 284 nM; in assay [4], 162 nM; in assay [5], 75.3 nM; in [6] it was 3420 nM. Besides, the GI50 in assay [7] is 115 nM; in assay [9], 71.7 nM; in [10], 6960 nM. Moreover, the TGI in [1] is 2070 nM; in [2], 1270 nM; in assay [4], 2230 nM; in [5], 797 nM; in [6], 36600 nM; in [7], 1070 nM. For the same compound, the TGI is 3020 nM in assay [8], 1580 nM in assay [9] and over 100000 nM in assay [10].
With `O=c1[nH]c(=O)n(C2OC(CO)C(O)C(O)C2O)cc1F` (configuration not stated), the TGI in assay [1], in assay [2], in [3], in [4], in assay [5] and in [6] was over 100000 nM in each case. Also, the TGI in assay [7], in assay [8], in assay [9] and in assay [10] was over 100000 nM throughout.
Regarding `Cc1ccc2[nH]c(C(=O)NN3C(=O)C(C)SC34CCCC(C)C4)c(-c3ccccc3)c2c1` (configuration not stated), the GI50 is over 100000 nM in assay [1]; over 100000 nM in assay [2]; 59100 nM in assay [3]; over 100000 nM in [4]; over 100000 nM in [5]; 50000 nM in assay [6]. The GI50 in [7] is 23500 nM; in assay [8], over 100000 nM; in [9] it was 48800 nM; in assay [10] it was over 100000 nM. Moreover, the TGI in assay [1], in [2], in assay [3], in [4], in [5] and in [6] was over 100000 nM throughout. The TGI in assay [7], in [8], in [9] and in assay [10] was over 100000 nM throughout.
In the case of `COc1cc2c3c(n(CCNCCCNCCn4c5c(c6cc(OC)c(OC)cc6c4=O)C(=O)c4ccccc4-5)c(=O)c2cc1OC)-c1ccccc1C3=O`, the GI50 was 693 nM in assay [1]; 65.6 nM in assay [2]; 52.3 nM in assay [3]; 29.3 nM in assay [4]; 300 nM in [5]; 1600 nM in assay [6]. Besides, the GI50 in [7] was under 16.6 nM; in assay [8], 2320 nM; in [9], 73.3 nM; in assay [10], over 65100 nM. In addition, the TGI is over 56300 nM in assay [1]; 556 nM in assay [2]; 9570 nM in assay [3]; 413 nM in [4]; 3040 nM in assay [5]; 20300 nM in assay [6]. Further, the TGI in [7] is 1590 nM; in assay [8] it was over 34700 nM; in assay [9], 1490 nM; in assay [10], over 100000 nM.
Turning to `CC(C)(C)c1cc(NC(=O)Cc2ccc(-c3cnc4cc(-c5cnn(CCN6CCOCC6)c5)ccc4n3)cc2)no1`, the GI50 in assay [1] is 151 nM and 302 nM and 39.4 nM; in assay [2] it was 194 nM and 91.3 nM; in assay [3], 106 nM and 104 nM; in assay [4] it was 248 nM and 416 nM and 82.1 nM; in assay [5], 223 nM and 533 nM and 78.3 nM; in assay [6], 158 nM and 363 nM and 43.9 nM. Also, the GI50 in assay [7] was 243 nM and 348 nM and 64.5 nM; in assay [8], 853 nM and 822 nM and 107 nM; in assay [9], 337 nM and 456 nM and 96.4 nM; in [10], 135 nM and 88.3 nM. For the same compound, the TGI was 50000 nM and > 100000 nM and > 3000 nM in [1]; 2920 nM and > 3000 nM in [2]; 650 nM and 1110 nM in assay [3]; 50000 nM and > 100000 nM and > 3000 nM in assay [4]; 50000 nM and > 100000 nM and > 3000 nM in [5]; 50000 nM and 14400 nM and > 1160 nM in [6]. Moreover, the TGI is 50000 nM and > 100000 nM and > 3000 nM in assay [7]; 50000 nM and > 100000 nM and > 3000 nM in assay [8]; 50000 nM and > 100000 nM and > 3000 nM in assay [9].
With `CCOC(=O)c1c(C)nc2c(c1N)/C(=C/c1ccc(OC)cc1)C(=O)N2Cc1ccc(F)cc1`, the GI50 in [1] is 137 nM; in [2] it was 263 nM; in [3] it was 235 nM; in assay [4], 164 nM; in assay [5], 261 nM; in assay [6], 392 nM. In addition, the GI50 in assay [7] is 244 nM; in [8] it was 148 nM; in assay [9] it was 197 nM; in assay [10], 132 nM. Also, the TGI in [1] was 529 nM; in assay [2], 859 nM; in [3], 733 nM; in [4], 340 nM; in assay [5], 1030 nM; in assay [6] it was 6250 nM. Also, the TGI is 750 nM in assay [7], 1910 nM in [8], 508 nM in assay [9] and 301 nM in assay [10].
